Laboratory results published in publication PMC6287599, “2,6-Bis(2-Benzimidazolyl)Pyridine (BBP) Is a Potent and Selective Inhibitor of Small Conductance Calcium-Activated Potassium (SK) Channels” (Frontiers in Pharmacology, 2018).
“Also recorded” adds a separate entry of the source.

Assays:
hSK2 = hSK2 (Homo sapiens, UniProt Q9H2S1); test: Automated patch clamp (QPatch 16), whole cell, stable HEK293 cell line expressing hSK2; format: cell-based; conditions: HEK stable line, 400 nM free intracellular calcium, mean ± SEM, n = 8
Experimental: Three different stable HEK293 cell lines expressing hSK1, hSK2 or hSK3 (NeuroSearch A/S, Ballerup, Denmark) and a CHO stable cell line expressing hERG (University of Copenhagen, Copenhagen, Denmark) were used for automated patch clamp. These cells were cultivated and prepared as previously described (Skarsfeldt et al., [2016]).
Automated patch clamp (QPatch 16, Sophion, Denmark) on SK-expressing HEK293 cell lines was conducted as previously described (Simó-Vicens et al., [2017b]). Briefly, SK currents were elicited by voltage-ramps starting at −80 mV and finishing at +80 mV from a holding potential of 0 mV. Extracellular solution contained 0.1 mM CaCl2, 3 mM MgCl2, 154 mM KCl, 10 mM HEPES and 10 mM glucose with pH 7.4. Intracellular solution for SK experiments contained 8.106 mM CaCl2 (final free calcium concentration of 400 nM), 1.167 mM MgCl2, 10 mM EGTA, 154 mM KCl, 10 mM HEPES, 31.25/ 10 mM KOH/EGTA and 15 mM KOH with pH 7.2. Automated patch clamp on hERG-expressing CHO cell line was performed also as previously described (Skarsfeldt et al., [2016]).
Individual IC50 values were calculated for each cell with the built-in nonlinear fit log(inhibitor) vs. normalized response equation:
Where Y is the normalized response, from 100, corresponding to current recorded during saline perfusion, down to 0, corresponding to currents recorded in the presence of bicuculline methiodide 100 μM. […]

hIK = biological target: T1, hIK (Homo sapiens, UniProt O15554); test: Manual whole cell patch clamp, HEK293 transiently transfected with hIK; format: cell-based; conditions: BBP 1 μM, n = 6
T1 construct: expressed in transfected cells; host or cells: HEK293 (transient, co-transfected with eGFP)
Experimental: HEK293 cells were transiently co-transfected with the plasmid of interest (hBK, hSK1, hSK2, hSK3 WT, rSK3 H491N, or hIK) and eGFP using standard Lipofectamine™ 2000 (Thermo Fisher Scientific, Waltham, Massachussets, USA) transfection protocols. After transfection, cells were incubated overnight before the experiments.
Manual patch clamp experiments were performed at room temperature in the whole cell configuration with a HEKA EPC9 amplifier and the Patchmaster software (HEKA Elektronik, Ludwigshafen, Germany). All currents were elicited every 2 s using an incremental 200 ms voltage-ramp protocol starting at −80 mV and finishing at +80 mV from a holding potential of 0 mV. Borosilicate glass pipettes were pulled with a horizontal puller (DMZ Universal Puller, Zeitz Instruments, Martinsried, Germany) with resistances 2.5–3 MΩ. Currents were measured using the same solutions as the ones used for automated patch clamp, with symmetrical potassium concentrations and a free intracellular calcium concentration of 400 nM. […] On the day of the experiment, cells were rinsed with magnesium-free PBS and detached with Detachin™ (Amsbio, Abingdon, United Kingdom) before being plated on 0.5 mm diameter coverslips. Only fluorescent cells were considered for patch clamp experiments.
To assess the effect of BBP on other calcium-activated potassium channels (hBK, hSK3 WT, rSK3 H491N, and hIK), each individual current was first normalized to its cell size using membrane's capacitance (pA/pF) before statistical analysis. […] Statistical significance between saline and the effect of both BBP and the corresponding reference compound was determined for each channel using one-way ANOVA analysis.
To do so, we transiently transfected HEK293 WT cells with a plasmid containing one of the human SK channel subtypes, the big conductance calcium and voltage-activated potassium (BK) channel or the intermediate conductance calcium-activated potassium (IK) channel. […] Finally, a positive control was used to inhibit the remaining current and quantify the total effect of BBP. […]

c1cc(-c2nc3ccccc3[nH]2)nc(-c2nc3ccccc3[nH]2)c1 [BBP, 2,6-Bis(2-benzimidazolyl)pyridine]
IC50 (hSK2): 0.4 ± 0.1 µM
Effect on hIK current (hIK): did not have any effect; also recorded: remained unaffected; also recorded: not affected
